Measurements published in ChEMBL document CHEMBL1156737, “Terpenoids. III: Synthesis and biological evaluation of 23-hydroxybetulinic acid derivatives as novel inhibitors of glycogen phosphorylase” (Bioorg Med Chem Lett, 2009).

molecular target: T1, Glycogen phosphorylase, muscle form (Oryctolagus cuniculus, UniProt P00489); assay: Inhibition of rabbit muscle glycogen phosphorylase A assessed as release of phosphate from glucose-1-phosphate after 25 mins; details: not given
T1 sequence (P00489 whole entry): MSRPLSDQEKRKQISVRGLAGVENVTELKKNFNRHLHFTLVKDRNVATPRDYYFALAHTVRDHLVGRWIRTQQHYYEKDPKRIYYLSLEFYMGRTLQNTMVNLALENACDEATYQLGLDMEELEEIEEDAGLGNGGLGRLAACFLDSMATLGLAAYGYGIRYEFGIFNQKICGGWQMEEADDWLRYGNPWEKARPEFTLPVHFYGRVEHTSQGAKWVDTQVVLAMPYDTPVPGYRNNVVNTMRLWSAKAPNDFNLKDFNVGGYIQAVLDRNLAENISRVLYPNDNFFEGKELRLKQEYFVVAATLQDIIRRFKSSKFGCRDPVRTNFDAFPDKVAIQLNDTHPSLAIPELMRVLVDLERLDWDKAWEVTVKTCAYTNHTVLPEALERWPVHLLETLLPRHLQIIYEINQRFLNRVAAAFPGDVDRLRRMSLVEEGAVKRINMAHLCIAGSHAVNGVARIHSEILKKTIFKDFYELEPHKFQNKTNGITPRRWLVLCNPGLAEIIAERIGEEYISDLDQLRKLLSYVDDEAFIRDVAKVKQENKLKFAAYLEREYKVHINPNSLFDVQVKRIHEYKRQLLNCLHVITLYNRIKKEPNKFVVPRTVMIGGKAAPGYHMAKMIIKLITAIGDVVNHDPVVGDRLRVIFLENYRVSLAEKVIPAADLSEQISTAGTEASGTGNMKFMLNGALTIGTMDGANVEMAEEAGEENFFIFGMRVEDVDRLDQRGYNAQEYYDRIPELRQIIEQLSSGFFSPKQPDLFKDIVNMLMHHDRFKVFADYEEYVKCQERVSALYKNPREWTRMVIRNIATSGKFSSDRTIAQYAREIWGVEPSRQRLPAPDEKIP

Row | IC50 | Compound
1 | Not Active | C=C(C)[C@@H]1CC[C@]2(C(=O)NCCCC)CC[C@]3(C)[C@H](CC[C@@H]4[C@@]5(C)CC[C@H](OC(=O)C(=O)NCCCC)[C@@](C)(COC(=O)C(=O)NCCCC)[C@@H]5CC[C@]43C)[C@@H]12

same assay, conditions: read-out: IC50

Row | IC50 [µM] | Compound
2 | 30.1 | C=C(C)[C@@H]1CC[C@]2(COC(=O)C(=O)OC)CC[C@]3(C)[C@H](CC[C@@H]4[C@@]5(C)CC[C@H](OC(=O)C(=O)OC)[C@@](C)(COC(=O)C(=O)OC)[C@@H]5CC[C@]43C)[C@@H]12
3 | 19.1 | C=C(C)[C@@H]1CC[C@]2(COC(=O)C(=O)OCC#CCO)CC[C@]3(C)[C@@H](CC[C@@H]4[C@@]5(C)CC[C@H](OC(=O)C(=O)OCC#CCO)[C@@](C)(COC(=O)C(=O)OCC#CCO)[C@@H]5CC[C@]43C)C12 (some centres undefined)
4 | 23.8 | C=C(C)[C@@H]1CC[C@]2(C(=O)NCCCN)CC[C@]3(C)[C@H](CC[C@@H]4[C@@]5(C)CC[C@H](O)[C@@](C)(CO)[C@@H]5CC[C@]43C)[C@@H]12
5 | 129 | C=C(C)[C@@H]1CC[C@]2(C(=O)NCC(=O)N[C@@H](Cc3ccccc3)C(=O)O)CC[C@]3(C)[C@H](CC[C@@H]4[C@@]5(C)CC[C@H](O)[C@@](C)(CO)[C@@H]5CC[C@]43C)[C@@H]12
6 | 69.1 | C=C(C)[C@@H]1CC[C@]2(C(=O)OCCCCCC)CC[C@]3(C)[C@H](CC[C@@H]4[C@@]5(C)CC[C@H](O)[C@@](C)(CO)[C@@H]5CC[C@]43C)[C@@H]12
7 | 34.7 | C=C(C)[C@@H]1CC[C@]2(COC(=O)C(=O)NCCCC)CC[C@]3(C)[C@H](CC[C@@H]4[C@@]5(C)CC[C@H](OC(=O)C(=O)NCCCC)[C@@](C)(COC(=O)C(=O)NCCCC)[C@@H]5CC[C@]43C)[C@@H]12
8 | 34.1 | C=C(C)[C@@H]1CC[C@]2(C(=O)NCCCCCCNC(C)=O)CC[C@]3(C)[C@H](CC[C@@H]4[C@@]5(C)CC[C@H](OC(C)=O)[C@@](C)(COC(C)=O)[C@@H]5CC[C@]43C)[C@@H]12
9 | 3.5 | C=C(C)[C@@H]1CC[C@]2(C(=O)NCCCCCCN)CC[C@]3(C)[C@H](CC[C@@H]4[C@@]5(C)CC[C@H](OC(C)=O)[C@@](C)(COC(C)=O)[C@@H]5CC[C@]43C)[C@@H]12
10 | 10.2 | C=C(C)[C@@H]1CC[C@]2(C(=O)NCCCCCCN)CC[C@]3(C)[C@H](CC[C@@H]4[C@@]5(C)CC[C@H](O)[C@@](C)(CO)[C@@H]5CC[C@]43C)[C@@H]12
11 | 96.6 | C=C(C)[C@@H]1CC[C@]2(C(=O)OCCN(CCCCCCNC(C)=O)C(C)=O)CC[C@]3(C)[C@H](CC[C@@H]4[C@@]5(C)CC[C@H](OC(C)=O)[C@@](C)(COC(C)=O)[C@@H]5CC[C@]43C)[C@@H]12
12 | 69.2 | C=C(C)[C@@H]1CC[C@]2(C(=O)OCCCCCCOC(=O)c3ccccc3C(=O)O)CC[C@]3(C)[C@H](CC[C@@H]4[C@@]5(C)CC[C@H](OC(C)=O)[C@@](C)(COC(C)=O)[C@@H]5CC[C@]43C)[C@@H]12
13 | 55.6 | C=C(C)[C@@H]1CC[C@]2(C(=O)NCCCCCCN(CC)CC)CC[C@]3(C)[C@H](CC[C@@H]4[C@@]5(C)CC[C@H](OC(C)=O)[C@@](C)(COC(C)=O)[C@@H]5CC[C@]43C)[C@@H]12
14 | 72.8 | C=C(C)[C@@H]1CC[C@]2(C(=O)NCCCN(CC)CC)CC[C@]3(C)[C@H](CC[C@@H]4[C@@]5(C)CC[C@H](OC(C)=O)[C@@](C)(COC(C)=O)[C@@H]5CC[C@]43C)[C@@H]12
15 | 289 | C=C(C)[C@@H]1CC[C@]2(C(=O)OCCBr)CC[C@]3(C)[C@H](CC[C@@H]4[C@@]5(C)CC[C@H](O)[C@@](C)(CO)[C@@H]5CC[C@]43C)[C@@H]12
16 | 35.9 | C=C(C)[C@@H]1CC[C@]2(COC(=O)C(=O)NC(C)C)CC[C@]3(C)[C@H](CC[C@@H]4[C@@]5(C)CC[C@H](OC(=O)C(=O)NC(C)C)[C@@](C)(COC(=O)C(=O)NC(C)C)[C@@H]5CC[C@]43C)[C@@H]12
17 | 103 | C=C(C)[C@@H]1CC[C@]2(C(=O)NCC(=O)OC)CC[C@]3(C)[C@H](CC[C@@H]4[C@@]5(C)CC[C@H](OC(C)=O)[C@@](C)(COC(C)=O)[C@@H]5CC[C@]43C)[C@@H]12
18 | 54.8 | C=C(C)[C@@H]1CC[C@]2(C(=O)NCCCCCCNC(=O)/C=C/C(=O)O)CC[C@]3(C)[C@H](CC[C@@H]4[C@@]5(C)CC[C@H](OC(C)=O)[C@@](C)(COC(C)=O)[C@@H]5CC[C@]43C)[C@@H]12
19 | 67.7 | C=C(C)[C@@H]1CC[C@]2(C(=O)NCC(=O)O)CC[C@]3(C)[C@H](CC[C@@H]4[C@@]5(C)CC[C@H](O)[C@@](C)(CO)[C@@H]5CC[C@]43C)[C@@H]12
20 | 97.8 | C=C(C)[C@@H]1CC[C@]2(COC(=O)CCC(=O)O)CC[C@]3(C)[C@H](CC[C@@H]4[C@@]5(C)CC[C@H](OC(=O)CCC(=O)O)[C@@](C)(COC(=O)CCC(=O)O)[C@@H]5CC[C@]43C)[C@@H]12
21 | 40.6 | C=C(C)[C@@H]1CC[C@]2(C(=O)NCC(=O)N[C@@H](Cc3ccccc3)C(=O)OC)CC[C@]3(C)[C@H](CC[C@@H]4[C@@]5(C)CC[C@H](O)[C@@](C)(CO)[C@@H]5CC[C@]43C)[C@@H]12
22 | 143 | C=C(C)[C@@H]1CC[C@]2(COC(C)=O)CC[C@]3(C)[C@H](CC[C@@H]4[C@@]5(C)CC[C@H](OC(C)=O)[C@@](C)(COC(C)=O)[C@@H]5CC[C@]43C)[C@@H]12
23 | 15.2 | C=C(C)[C@@H]1CC[C@]2(C(=O)NCCCN)CC[C@]3(C)[C@H](CC[C@@H]4[C@@]5(C)CC[C@H](OC(C)=O)[C@@](C)(COC(C)=O)[C@@H]5CC[C@]43C)[C@@H]12
24 | 50.4 | C=C(C)[C@@H]1CC[C@]2(C(=O)OC3CCCCC3)CC[C@]3(C)[C@H](CC[C@@H]4[C@@]5(C)CC[C@H](O)[C@@](C)(CO)[C@@H]5CC[C@]43C)[C@@H]12
25 | 94.5 | C=C(C)[C@@H]1CC[C@]2(C(=O)OCC#CCOC(=O)CCC(=O)O)CC[C@]3(C)[C@H](CC[C@@H]4[C@@]5(C)CC[C@H](OC(C)=O)[C@@](C)(COC(C)=O)[C@@H]5CC[C@]43C)[C@@H]12
26 | 29.5 | C=C(C)[C@@H]1CC[C@]2(C(=O)NCCCCCCNCC)CC[C@]3(C)[C@H](CC[C@@H]4[C@@]5(C)CC[C@H](OC(C)=O)[C@@](C)(COC(C)=O)[C@@H]5CC[C@]43C)[C@@H]12
27 | 194 | C=C(C)[C@@H]1CC[C@]2(C(=O)NCCCCCCNC(=O)CCC(=O)O)CC[C@]3(C)[C@H](CC[C@@H]4[C@@]5(C)CC[C@H](OC(C)=O)[C@@](C)(COC(C)=O)[C@@H]5CC[C@]43C)[C@@H]12
28 | 194 | C=C(C)[C@@H]1CC[C@]2(C(=O)OCC#CCO)CC[C@]3(C)[C@H](CC[C@@H]4[C@@]5(C)CC[C@H](O)[C@@](C)(CO)[C@@H]5CC[C@]43C)[C@@H]12

Row | Compound | IC50 [µM]
29 | C=C(C)[C@@H]1CC[C@]2(C(=O)O)CC[C@]3(C)[C@H](CC[C@@H]4[C@@]5(C)CC[C@H](O)[C@@](C)(CO)[C@@H]5CC[C@]43C)[C@@H]12 | 103
